Experiments:
[1] = Stability at ordinary temperature, under cooking conditions and in solution; assay type: physicochemical; conditions: for stability under cooking conditions: cooking conditions of 180° C. or lower
Source text: The agent, pharmaceutical composition, or nutritional composition of the present invention can be produced by using various known techniques. The step of adjusting concentration of the active ingredient to a predetermined concentration may be performed in various stages of the manufacturing process. Those skilled in the art can appropriately design the steps for producing the agent of the present invention in consideration of solubility, stability, volatility, etc. of the active ingredient. […] It was also confirmed that they can be stably stored over at least 2 years and 9 months in a state of solution.

[2] = cited from earlier work
[3] = tested on: transgenic mice (Alzheimer disease model mice); assay: Blood cytokines in high fat diet Alzheimer disease model mice; assay type: in vivo, mouse; conditions: carnosine-containing diet group
Description: (§1) High fat diet (HFD) was given to transgenic mice (Alzheimer disease model mice) to induce cerebral hypofunction. Carnosine (L-histidine-β-alanine) was administered to the mice, and influence of carnosine was evaluated.
(§2) Suppression of cerebral inflammation in the carnosine administration group was also shown by the results of MRI test (FIG. 8-2, red portions). The results of the microarray analysis indicated increase of expressions of GABA transporters such as 7Slc6a12 and slc6a13 observed in the Alzheimer model was suppressed in the carnosine administration group (FIG. 8-3).

[4] = tested on: transgenic mice (Alzheimer disease model mice); assay: Intracerebral inflammatory reaction by MRI in Alzheimer disease model mice; assay type: in vivo, mouse; conditions: carnosine administration group, high fat diet transgenic mice
Description: as §1, §2

GABA transporters = assay: Microarray analysis of GABA transporter genes in Alzheimer disease model mice; assay type: in vivo, mouse; conditions: carnosine administration group vs Alzheimer model
Description: as §1, §2

[5] = tested on: transgenic mice (Alzheimer disease model mice); assay: Blood insulin concentration in Alzheimer disease model mice; assay type: in vivo, mouse; conditions: mice starved overnight; high fat diet-induced Alzheimer disease; p<0.05
Description: as §1
Blood was collected from mice starved overnight, and blood insulin concentration was determined with a kit (Morinaga).

Structure (SMILES)	stability under cooking conditions [1]	stability at an ordinary temperature [1]	water solubility (in words) [2]	blood cytokines [3]	cerebral inflammation (MRI test) [4]	increase of expression of GABA transporter 7Slc6a12 (GABA transporters)	increase of expression of GABA transporter slc6a13 (GABA transporters)	increase of the blood insulin concentration [5]	water solubility ([2]; at 25° C.) [g/3.1 ml]
Cn1cncc1C[C@H](NC(=O)CCN)C(=O)O [anserine, (2S)-2-[(3-amino-1-oxopropyl)amino]-3-(3-methyl-4-imidazolyl)ppropanoic acid]	sufficiently stable	sufficiently stable	water-soluble	–	–	–	–	–	–
NCCC(=O)N[C@@H](Cc1cnc[nH]1)C(=O)O [carnosine]	sufficiently stable	sufficiently stable	water-soluble	decreased	Suppression	suppressed	suppressed	suppressed	1

Source: patent US20180140655A1, “AGENT CONTAINING IMIDAZOLE DIPEPTIDE” (THE UNIVERSITY OF TOKYO, priority 2014, published 2018)
